Earlier results, collected in patent publication US20110200632A1, “ADJUVANTING MATERIAL” (Lipotek Pty Ltd., priority 2005, published 2011).

Tested on: splenocytes and macrophages
Conditions: versus Pam3Cys

CCCCCCCCCCCCCCCC(=O)OCC(CSC[C@H](N)C(=O)O)OC(=O)CCCCCCCCCCCCCCC (stereo partly drawn) [Pam2Cys, S-[2,3-bis(palmitoyloxy)propyl]cysteine]
stimulator of splenocytes and macrophages, compared with Pam3Cys: more potent
